One molecule from US20080300298A1, “Honokiol Derivates For the Treatment of Proliferative Disorders” (priority 2005, published 2008) can be followed below.

In data set [1] the test system is MM.1S cells. Description: [3H]-thymidine uptake with IL-6, IGF-1 or BMSCs. The note with it: 48 h. In kind it is cell-based, human. The method, then:
DNA synthesis was measured as previously described, see, for example, Hideshima et al Blood. 2000; 96:2943-2950. Cells in 96-well culture plates were pulsed with 0.5 μCi/well of [^3H]-thymidine (Perkin Elmer, Boston, Mass.) during the last 8 h of culture, harvested onto glass filters with an automatic cell harvester (Cambridge Technology, Cambridge, Mass.), and counted using the LKB Betaplate scintillation counter (Wallac, Gaithersburg, Md.). All experiments were performed in triplicate.
Assessment of HNK-induced cytotoxicity against patient MM cells: Cytotoxicity of HNK against fresh MM cells was determined as previously determined, see, for example, Mitsiades et al Cancer Cell. 2004; 5:221-230. […] A CD38^high fraction enriched for MM cells was determined in side and forward scatter panel in each case. The expression of CD138 on gated cells was also evaluated. After HNK-treatment for 48 h, cells were harvested and percentage of CD38^high cells with or without HNK-treatment was evaluated. […] Cells were stained with propidium iodide (PI; 50 μg/mL; Sigma, St Louis, Mo.), and cell cycle profile was determined by using the program M software on an EPICS XL flow cytometer (Beckman Coulter, Hialeah, Fla.). […] Fluorescence intensity of TUNEL and APO 2.7 staining was determined using on EPICS XL flow cytometer. Cytotoxicity was determined by trypan blue exclusion assay. […]

The test system of data set [2] is AKT, p44/42 MAPK, and Src phosphorylation in SVR cells. As to the kind of experiment: Western blotting of phosphorylated intracellular proteins. It is filed as cell-based. An excerpt: FIG. 14 depicts the effects of honokiol on the phosphorylation of various intracellular proteins. […] Cells were lysed and analyzed by Western blotting using antibodies specific for the phosphorylated (P-AKT, P-MAPK, and P-Src) or unphosphorylated forms of AKT and MAPK. […] Cells were lysed and analyzed by Western blotting using antibodies specific for the phosphorylated (P-Akt, P-MAPK, and P-Src) or unphosphorylated forms of Akt and MAPK.
(In general: A western blot detects proteins with antibodies after separation by electrophoresis.)

Data set [3] deals with KBM-5 cells. The note with it: KBM-5, 72 h, with TNF, paclitaxel or doxorubicin.
Protocol: KBM-5 cells (5000 cells/0.1 ml) were incubated at 37° C. with TNF, paclitaxel or doxorubicin in the presence and absence of 5 mM honokiol as indicated for 72 h, and the viable cells were assayed using the MTT reagent. The results are expressed as mean cytotoxicity ±SD from triplicate cultures.
Cytotoxicity assay Cytotoxicity was assayed by the modified tetrazolium salt 3-(4-5-dimethylthilozol-2-yl)-2-5-diphenyl-tetrazolium bromide (MTT) assay as described previously (Bharti, A. C., et al. 2004 J. Biol. Chem. 279:6065-6076).
The effect of honokiol on TNF and chemotherapeutic agent-induced apoptosis was examined by the MTT assay.

As for `C=CCc1ccc(O)c(-c2ccc(O)c(CC=C)c2)c1` [HNK, Honokiol], the “DNA synthesis triggered by binding to BMSCs” value in data set [1] (MM.1S on BMSCs of MM patients) is reported as “abrogated”. Also, in data set [1] (MM.1S), the “growth inhibition in the presence of IL-6 or IGF-1” value was “Neither IL-6 nor IGF-1 protected against HNK induced growth inhibition”. In addition, the “phosphorylation of Akt, p44/42 MAPK, Src at low concentrations” value in data set [2] (2.7, 6.7 or 13.3 μg/ml, 2, 6 or 24 h) is reported as “inhibits phosphorylation of Akt at low concentrations but not p44/42 MAPK or Src”. In data set [2] (20, 30, 40 or 45 μg/ml, 1 h), the “phosphorylation of AKT, p44/42 MAPK, and Src” value is “inhibits phosphorylation of AKT, p44/42 MAPK, and Src”. Also, in data set [3], the “cytotoxic effects of TNF and chemotherapeutic agents (MTT)” value was “enhanced the cytotoxic effects of TNF, paclitaxel, and doxorubicin”.
